Laboratory results published in patent US20230048678A1, “ICAN DERIVATIVES FOR ANTIFUNGAL USE” (DEBRECENI EGYETEM, priority 2019, published 2023).

Test system: clinical Candida isolates (C. albicans, C. krusei, C. tropicalis, C. glabrata, C. parapsilosis)
Experiment: Broth microdilution, MIC summarised over all clinical Candida isolates
Format: cell-based
Details: range or bound over all tested isolates of five Candida species
Protocol: The present inventors have discovered that 1-amino-5-isocyanonaphthalene (ICAN) and its derivatives exert excellent antifungal activity against a broad range of Candida species. […] Nevertheless, proper formulation and/or substitution with solubility enhancer groups on the naphthalene core may increase its effectiveness. Based on MIC values (MICPI=0.04−0.3 μg/ml MICTI=0.6 μg/ml) and its low cytotoxicity 1,1-N-dimethylamino-5-isocyanonaphthalene (DIMICAN) was selected to be tested on clinical Candida isolates. […] Amphotericin B (AMB) is an antifungal agent which is effective against a number of medically important fungi. The in vivo applicability of DIMICAN was tested on immunosuppressed mice and control experiments were also conducted with amphotericin B. In the model of acute invasive candidiasis, neutropenic mice were infected intravenously with C. albicans isolate 3666 (3×10^4 cfu/mouse) to establish an acute infection, and all untreated control animals died within 6 days. […]
The tested C. albicans, C. tropicalis, C. parapsilosis, C. glabrata and C. krusei ATCC strains and clinical isolates are listed in Table 2. MICs were determined according to the CLSI M27-A3 [22]. […] MICs were read visually after 48-h incubation at 35° C. using the partial (50%) inhibition (for ICAN derivatives) (PI) and total inhibition (for AMB and ICAN derivatives) (TI) criteria. MICs were determined at least twice. […]

SMILES: [C-]#[N+]c1cccc2c(N(C)C)cccc12 [DIMICAN, N,N-dimethyl-1-amino-5-isocyanonaphthalene]
- total minimum inhibitory concentration (MICTI): 0.08 to 1.25 µg/mL
